System: SEM cells
Assay: cell viability relative to DMSO control; higher = less cytotoxic
Settings: 48 h
Method in brief: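 NOMO1 or SEM (500 cells/well) or P12-Ichikawa (1000 cells/well) leukemia cells were adapted for at least four passages in each medium. They were seeded in 1536-well plates (5 μl) and pin-dosed with library compounds in DMSO over an 11-point threefold series, 47 μM to 0.79 nM. CellTiter-Glo One luminescence was read after 48 h at 37°C. Viability is the per-plate percentage relative to DMSO wells, with cell-free wells as background.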

[1] = HPLM + 10% dialyzed FBS, 0.000781 µM
[2] = HPLM + 10% dialyzed FBS, 0.00234 µM
[3] = HPLM + 10% dialyzed FBS, 0.00702 µM
[4] = HPLM + 10% dialyzed FBS, 0.0211 µM
[5] = HPLM + 10% dialyzed FBS, 0.0632 µM
[6] = HPLM + 10% dialyzed FBS, 0.19 µM
[7] = HPLM + 10% dialyzed FBS, 0.569 µM
[8] = HPLM + 10% dialyzed FBS, 1.71 µM
[9] = HPLM + 10% dialyzed FBS, 5.12 µM
[10] = HPLM + 10% dialyzed FBS, 15.4 µM
[11] = HPLM + 10% dialyzed FBS, 46.1 µM
[12] = RPMI 5 mM glucose + 10% FBS, 0.000781 µM
[13] = RPMI 5 mM glucose + 10% FBS, 0.00234 µM
[14] = RPMI 5 mM glucose + 10% FBS, 0.00702 µM
[15] = RPMI 5 mM glucose + 10% FBS, 0.0211 µM
[16] = RPMI 5 mM glucose + 10% FBS, 0.0632 µM
[17] = RPMI 5 mM glucose + 10% FBS, 0.19 µM
[18] = RPMI 5 mM glucose + 10% FBS, 0.569 µM
[19] = RPMI 5 mM glucose + 10% FBS, 1.71 µM
[20] = RPMI 5 mM glucose + 10% FBS, 5.12 µM
[21] = RPMI 5 mM glucose + 10% FBS, 15.4 µM
[22] = RPMI 5 mM glucose + 10% FBS, 46.1 µM
[23] = RPMI 5 mM glucose + 10% dialyzed FBS, 0.000781 µM
[24] = RPMI 5 mM glucose + 10% dialyzed FBS, 0.00234 µM
[25] = RPMI 5 mM glucose + 10% dialyzed FBS, 0.00702 µM
[26] = RPMI 5 mM glucose + 10% dialyzed FBS, 0.0211 µM
[27] = RPMI 5 mM glucose + 10% dialyzed FBS, 0.0632 µM
[28] = RPMI 5 mM glucose + 10% dialyzed FBS, 0.19 µM
[29] = RPMI 5 mM glucose + 10% dialyzed FBS, 0.569 µM
[30] = RPMI 5 mM glucose + 10% dialyzed FBS, 1.71 µM
[31] = RPMI 5 mM glucose + 10% dialyzed FBS, 5.12 µM
[32] = RPMI 5 mM glucose + 10% dialyzed FBS, 15.4 µM
[33] = RPMI 5 mM glucose + 10% dialyzed FBS, 46.1 µM

Row | SMILES | cell viability [1] [%] | cell viability [2] [%] | cell viability [3] [%] | cell viability [4] [%] | cell viability [5] [%] | cell viability [6] [%] | cell viability [7] [%] | cell viability [8] [%] | cell viability [9] [%] | cell viability [10] [%] | cell viability [11] [%] | cell viability [12] [%] | cell viability [13] [%] | cell viability [14] [%] | cell viability [15] [%] | cell viability [16] [%] | cell viability [17] [%] | cell viability [18] [%] | cell viability [19] [%] | cell viability [20] [%] | cell viability [21] [%] | cell viability [22] [%] | cell viability [23] [%] | cell viability [24] [%] | cell viability [25] [%] | cell viability [26] [%] | cell viability [27] [%] | cell viability [28] [%] | cell viability [29] [%] | cell viability [30] [%] | cell viability [31] [%] | cell viability [32] [%] | cell viability [33] [%]
1 | NC(=O)c1cccc2cn(-c3ccc([C@@H]4CCCNC4)cc3)nc12 | 86.9 | 90.8 | 105 | 126 | 129 | 98.9 | 112 | 116 | 91.8 | 63.8 | 50 | 97.8 | 111 | 113 | 110 | 102 | 92.8 | 119 | 113 | 120 | 80.1 | 32.5 | 94.3 | 80.8 | 93.4 | 106 | 104 | 90 | 109 | 124 | 94.6 | 66.4 | 44.4
2 | CN1\N=C(N)/C2=C[N]([C@@H]3O[C@H](CO[P](O)(O)=O)[C@@H](O)[C@H]3O)C4=C2C1=NC=N4 | 77.9 | 79.8 | 42.7 | 45.6 | 38 | 25.8 | 13.2 | 8.14 | 4.15 | 2.69 | 2.9 | 107 | 109 | 63.8 | 65.2 | 50.3 | 35.3 | 16.7 | 7.7 | 6.79 | 3.71 | 3.23 | 88.7 | 76 | 40 | 38.9 | 21.1 | 13.4 | 8.31 | 6.58 | 4.28 | 3.22 | 2.94
3 | CCC(=C/[C@H](C)C/C=C/C(C)=C/[C@@H](C)C(=O)[C@@H](C)[C@H](O)[C@@H](C)C/C(C)=C/C(=O)O)/C=C/[C@@H]1OC(=O)C=C[C@@H]1C | 59.9 | 88.8 | 77.7 | 79.9 | 89.2 | 75.7 | 62.4 | 20.6 | 5.63 | 5.09 | 7.74 | 83 | 96.4 | 93.2 | 95.3 | 106 | 70.4 | 45.5 | 13 | 6.23 | 5.5 | 10.9 | 84 | 86 | 95.4 | 91.1 | 82.9 | 77.7 | 52 | 18.8 | 7.36 | 6.69 | 8.55
4 | CCCCCCCCCC(=O)N[C@@H](Cc1c[nH]c2ccccc12)C(=O)N[C@H](CC(N)=O)C(=O)N[C@@H](CC(=O)O)C(=O)N[C@@H]1C(=O)NCC(=O)N[C@@H](CCCN)C(=O)N[C@@H](CC(=O)O)C(=O)N[C@H](C)C(=O)N[C@@H](CC(=O)O)C(=O)NCC(=O)N[C@H](CO)C(=O)N[C@@H]([C@@H](C)CC(=O)O)C(=O)N[C@@H](CC(=O)c2ccccc2N)C(=O)O[C@@H]1C | 81.6 | 101 | 98.3 | 108 | 93.4 | 108 | 121 | 114 | 116 | 107 | 101 | 103 | 103 | 123 | 114 | 105 | 120 | 121 | 102 | 116 | 119 | 120 | 102 | 105 | 94.8 | 103 | 123 | 104 | 117 | 103 | 109 | 105 | 102
5 | c1ccc(CNc2nc(N3CCOc4ccccc43)nc3c2CCCC3)cc1 | 87 | 94.6 | 88.7 | 96.9 | 102 | 109 | 93.3 | 106 | 98.5 | 89.9 | 83.2 | 91 | 88.6 | 87 | 89.4 | 101 | 96.2 | 89.5 | 95.9 | 91.4 | 77.7 | 71 | 75 | 91.3 | 96.5 | 96.8 | 95.5 | 103 | 106 | 108 | 94.5 | 82.7 | 82.9
6 | CC(O)(C#Cc1ccc2c(c1)N(c1nc(N)ncc1Cl)CC2)c1nccs1 (configuration not stated) | 97.3 | 110 | 113 | 100 | 125 | 107 | 109 | 120 | 111 | 111 | 72.4 | 88.2 | 87.3 | 107 | 62.8 | 92.9 | 97.7 | 102 | 101 | 102 | 84.5 | 43.5 | 117 | 120 | 119 | 82.5 | 107 | 103 | 117 | 123 | 114 | 109 | 59.2
7 | CC1(C)CNc2cc(NC(=O)c3cccnc3NCc3ccncc3)ccc21 | 118 | 118 | 121 | 112 | 102 | 104 | 92.4 | 101 | 96.3 | 93 | 13.2 | 85.4 | 70.9 | 87.7 | 79.4 | 79.7 | 79.4 | 73.9 | 75.4 | 78.1 | 70.1 | 12.9 | 111 | 112 | 105 | 128 | 125 | 100 | 102 | 91.1 | 79.2 | 90.6 | 7.67
8 | O=C\1N(N\C=C1[N]2C=CN=N2)C3=NC=NC(=C3)N4CCOCC4 | 58.1 | 74.2 | 66.2 | 69.5 | 56 | 46.9 | 20.1 | 36.9 | 21.7 | 15.8 | 12.1 | 56.6 | 102 | 108 | 95.5 | 46.8 | 28.6 | 13.6 | 13.3 | 19.2 | 14.5 | 16.8 | 52.3 | 77.4 | 74.1 | 69.3 | 66.5 | 42.8 | 17.3 | 32.8 | 19.5 | 19.9 | 16.7
9 | NC(=O)C1CCCc2c1[nH]c1ccc(Cl)cc21 (configuration not stated) | 115 | 120 | 129 | 125 | 119 | 141 | 126 | 64.8 | 27.4 | 3.88 | 1.72 | 119 | 122 | 134 | 133 | 126 | 118 | 140 | 115 | 63.3 | 5.97 | 1.78 | 109 | 107 | 109 | 108 | 111 | 126 | 108 | 76.8 | 47.4 | 6.13 | 2.95
10 | Cc1cnc(C(=O)O)c[n+]1[O-] |  |  |  |  |  |  |  |  |  |  |  | 77.1 | 88.9 | 81 | 87 | 85.7 | 92.1 | 101 | 87.3 | 99.5 | 87.8 | 72.6 | 121 | 118 | 92.7 | 112 | 135 | 126 | 133 | 128 | 120 | 114 | 99.3
11 | C=CCc1cccc(/C=N/NC(=O)CN2CCN(Cc3ccccc3)CC2)c1O | 124 | 122 | 128 | 137 | 132 | 124 | 144 | 89.4 | 103 | 29.3 | 8.81 | 124 | 114 | 124 | 122 | 131 | 114 | 131 | 105 | 95.4 | 54.8 | 8.05 |  |  |  |  |  |  |  |  |  |  | 
12 | Nc1cccc2c1CN([C@H]1CCC(=O)NC1=O)C2=O | 120 | 131 | 110 | 121 | 115 | 114 | 103 | 97.6 | 81.8 | 99.5 | 89.5 |  |  |  |  |  |  |  |  |  |  |  | 109 | 108 | 117 | 111 | 120 | 109 | 111 | 103 | 103 | 88.8 | 81.4
13 | CCN(CC)CCCCNc1ncc2c(n1)N(C)C(=O)N(c1c(Cl)c(OC)cc(OC)c1Cl)C2 | 99.2 | 110 | 110 | 111 | 119 | 111 | 117 | 114 | 99.2 | 48.3 | 11.9 | 109 | 112 | 117 | 125 | 119 | 106 | 126 | 109 | 104 | 44.4 | 13.2 | 125 | 118 | 107 | 114 | 116 | 116 | 129 | 104 | 101 | 52.3 | 16.9
14 | CCC\C1=C\C(=O)NC(=S)N1 | 71.1 | 74.2 | 98.3 | 30.6 | 119 | 91.1 | 7.27 | 27.9 | 79.2 | 51.5 | 75.9 | 63.3 | 91.9 | 102 | 28 | 121 | 124 | 6.88 | 22.9 | 93.1 | 52.2 | 65 | 69.2 | 74.8 | 91.7 | 54.4 | 89.8 | 125 | 6.6 | 20.3 | 92.4 | 43.1 | 50.8
15 | CO/C1=C/C(C)=C\[C@@H](C)[C@@H](O)[C@@H](C)C/C(C)=C\C=C/[C@H](OC)[C@@H]([C@@H](C)[C@@H](O)[C@H](C)[C@@]2(O)C[C@@H](O)[C@H](C)[C@@H](C(C)C)O2)OC1=O | 91 | 74.8 | 91 | 48.6 | 28.7 | 27 | 27 | 25.2 | 32 | 29 | 29.7 | 80.9 | 75 | 88.1 | 46.8 | 29.2 | 26.2 | 24.6 | 29.9 | 31.8 | 32.8 | 31.8 | 81.3 | 79.9 | 87.8 | 38.1 | 27.3 | 27.8 | 29.6 | 30.1 | 26.2 | 29.7 | 30.3

From the supplement of paper PMC11451515
